This data set addresses HSD17B13. To be noted: ASO, HepaRG.

After the bases stand the sugars from the 5' end (letter, count) and the backbone: PS all phosphorothioate, else s phosphorothioate and o phosphodiester by linkage. Methylation of C is not given here. e = 2'-O-(2-methoxyethyl) (MOE); k = constrained ethyl (cEt); d = 2'-deoxy (DNA); m = 2'-O-methyl

As for GCTTTTGTCCACCTTT (sugars k3 d10 k3, PS), the target mRNA inhibition stood at 28% (0.02 µM); 44% (0.078 µM); 61% (0.313 µM); 68% (1 µM); 82% (1.25 µM); 97% (5 µM). Take “TATGAAGTTAGTATAG (sugars kkdddddddddkekek, PS)”: the target mRNA inhibition (1 µM) is 47%.

Take TCCTTTGTATTTCGCT (sugars k3 d10 k3, PS): the target mRNA inhibition (1 µM) turned out to be 68%. On the same count and under the same terms, with ACAAGTGACAGCATTG (sugars k3 d10 k3, PS) the figure was 44%. With GAAAACTCAGCCAGCA (sugars k3 d10 k3, PS), the target mRNA inhibition was 0% (0.02 µM); 2% (0.078 µM); 51% (0.313 µM); 78% (1 µM); 73% (1.25 µM); 75% (5 µM). In the case of CATAAGTAGTCTGCCT (sugars k3 d10 k3, PS), the target mRNA inhibition (1 µM) was found to be 31%.

Take TATATACTAGGATTAG (sugars k3 d10 k3, PS): for the setting “1 µM”, the target mRNA inhibition was determined as 10%. On the same count and under the same terms, with TATAGGTAGCTAATGT (sugars k3 d10 k3, PS) the figure was 31%; with “GATCUCTTAGCTGTGC (sugars k3 d1 m1 d8 k3, PS)”, 65%; with TCTAGGATGATGTTCA (sugars k3 d10 k3, PS), 64%.

The sequence “CTTTGCAGCATTGATT (sugars kkdddddddddkekek, PS)” had a target mRNA inhibition (1 µM) of 49%.

In the case of ACTCCCCAAACATGGA (sugars k3 d10 k3, PS), the target mRNA inhibition (1 µM) came to 48%. The same measure, in the same setting: with TGTGTTAGCTTTAATT (sugars k3 d10 k3, PS) the figure was 38%; with “AACTUCATAGTGGACT (sugars k3 d1 m1 d8 k3, PS)”, 38%; with CTCAAATAGCCTTTTG (sugars k3 d10 k3, PS), 64%. The same measure, in the same setting: with CCCTGTGTAAATAAGT (sugars k3 d10 k3, PS) the figure was 41%.

Under “1 µM”, “TGTAATAGCCAGTACA (sugars k3 d1 m1 d8 k3, PS)” gave a target mRNA inhibition of 40%. Still for that read-out and setting: under AGAAATTTGTGAACCT (sugars k3 d10 k3, PS) stands 39%; under CTGGATATACTGTCCC (sugars k3 d10 k3, PS), 20%; under CTGAGAAGATCGGCTG (sugars k3 d10 k3, PS), 37%. CCTCCTTATTTGTTAG (sugars k3 d10 k3, PS) came in with a target mRNA inhibition (1 µM) of 41%. Same read-out and setting: under AGTAATCACAAGTAAG (sugars k3 d10 k3, PS) stands 54%.

On to “CATAATAATAGCTCTA (sugars k3 d1 m1 d8 k3, PS)”, for which the target mRNA inhibition (1 µM) is 33%. On the same count and under the same terms, with CAAAATGGTGGCGAGG (sugars k3 d10 k3, PS) the figure was 10%; with “TGGCATGGCTACAGAT (sugars k3 d1 m1 d8 k3, PS)”, 57%; with TAGTTAGAATAGTCTT (sugars k3 d10 k3, PS), 23%. Regarding CCCGCCCTTAAGTCAT (sugars k3 d10 k3, PS), where the note is “1 µM”, the target mRNA inhibition is 45%. Consider GCATTAATGCCACCCT (sugars k3 d10 k3, PS), for which the target mRNA inhibition (1 µM) came to 36%.

As for “TGAAGTTAGTATAGTT (sugars kkdddddddddkekek, PS)”, the target mRNA inhibition (1 µM) was 46%. Still for that read-out and setting: under GTGCTAAGTAGTAATT (sugars k3 d10 k3, PS) stands 58%.

AAGAGGCTAGGGAAAT (sugars k3 d10 k3, PS) yielded a target mRNA inhibition (1 µM) of 66%.

Sequence TGATATTCTGTGGCAT (sugars k3 d10 k3, PS) returned a target mRNA inhibition (0.02 µM) of 0%; a target mRNA inhibition (0.078 µM) of 0%; a target mRNA inhibition (0.313 µM) of 22%; a target mRNA inhibition (1 µM) of 69%; a target mRNA inhibition (1.25 µM) of 64%; a target mRNA inhibition (5 µM) of 82%.

In turn, TGTTAAGCAGATGGCT (sugars k3 d10 k3, PS) gave a target mRNA inhibition (1 µM) of 39%. On the same count and under the same terms, under CAATTGCTCTATAGAT (sugars k3 d10 k3, PS) stands 15%. Same read-out and setting: under GTAACGGTGATCAAAT (sugars k3 d10 k3, PS) stands 34%. Same read-out and setting: with CCTTATGATAATTTGG (sugars k3 d10 k3, PS) the figure was 29%; with CTGAAATTGATACACC (sugars k3 d10 k3, PS), 67%. On to TGATCTCTTAGCTGTG (sugars k3 d10 k3, PS), for which the target mRNA inhibition (1 µM) turned out to be 59%.

ACCAAGAGACACCACC (sugars k3 d10 k3, PS) returned a target mRNA inhibition (1 µM) of 41%. The same measure, in the same setting: under CTGAGCTAGACAATTG (sugars k3 d10 k3, PS) stands 56%; under CTAAAACTGAAGGTCT (sugars k3 d10 k3, PS), 40%. As to CTTGTGTAGTCCTAGG (sugars k3 d10 k3, PS), the target mRNA inhibition is 7% (0.02 µM); 13% (0.078 µM); 39% (0.313 µM); 71% (1 µM); 70% (1.25 µM); 87% (5 µM). TAGTAATCACAAGTAA (sugars k3 d10 k3, PS) had a target mRNA inhibition (1 µM) of 30%. As for “TAAGCTGAGAGTTCTA (sugars k3 d9 k3 e1, PS)”, the target mRNA inhibition (1 µM) is 48%. In the case of TATTAAGTACTGTGAG (sugars k3 d10 k3, PS), the target mRNA inhibition (1 µM) came out at 0%.

Under “1 µM”, “TATTAGAAGTCAGCCC (sugars k3 d9 k3 e1, PS)” showed a target mRNA inhibition of 32%. Still for that read-out and setting: with AGAAGGACTTTCATAG (sugars k3 d10 k3, PS) the figure was 46%; with “TAGAATAGTCTTCAGC (sugars kkdddddddddkekek, PS)”, 50%. “TATAGTTATCTTCTCA (sugars k3 d1 m1 d8 k3, PS)” had a target mRNA inhibition (1 µM) of 33%.

In turn, “GAACAATATGGGATGA (sugars kkdddddddddkekek, PS)” returned a target mRNA inhibition (1 µM) of 49%.

As to ATGAGATTACCCCTGG (sugars k3 d10 k3, PS), where the note is “1 µM”, the target mRNA inhibition amounted to 62%. As for AGGTTGAGATAAAGCT (sugars k3 d10 k3, PS), the target mRNA inhibition amounted to 20% (0.02 µM); 27% (0.078 µM); 40% (0.313 µM); 74% (1 µM); 69% (1.25 µM); 86% (5 µM).

Take “GCATGGCTACAGATTG (sugars k3 d1 m1 d8 k3, PS)”: the target mRNA inhibition reads like this: (0.02 µM) 2%; (0.078 µM) 2%; (0.313 µM) 31%; (1 µM) 76%; (1.25 µM) 61%; (5 µM) 78%.

For the setting “1 µM”, AAGCAGAATTGTGAAC (sugars k3 d10 k3, PS) returned a target mRNA inhibition of 18%. Where the note is “1 µM”, “AGCCAGTACAGTTCCT (sugars kkdddddddddkekek, PS)” displayed a target mRNA inhibition of 49%. The same measure, in the same setting: with GTCCTTTGTATTTCGC (sugars k3 d10 k3, PS) the figure was 45%; with AAAAACTTCACCAACG (sugars k3 d10 k3, PS), 8%; with AATTAACATTCGGCTA (sugars k3 d10 k3, PS), 38%. The sequence GCGATAGATCTCTTCT (sugars k3 d10 k3, PS) gave a target mRNA inhibition (1 µM) of 24%. As to CCTTGAATAGCAAGCC (sugars k3 d10 k3, PS), the target mRNA inhibition (1 µM) worked out at 61%.

CCCTTAGGAAAGCTCA (sugars k3 d10 k3, PS): the target mRNA inhibition (1 µM) was determined as 37%. In the case of CTAGGAGATATAACAT (sugars k3 d10 k3, PS), where the note is “1 µM”, the target mRNA inhibition amounted to 40%. Take GTTAACCTGCAGCAGA (sugars k3 d10 k3, PS): the target mRNA inhibition (1 µM) turned out to be 51%. Still for that read-out and setting: under “CTAAACATCTCTGGGA (sugars kkdddddddddkekek, PS)” stands 29%.

With “AAATATGTCCAGGTTG (sugars kkdddddddddkekek, PS)”, the target mRNA inhibition (1 µM) was found to be 61%. Take TCGGTCACCTTTCATA (sugars k3 d10 k3, PS): the target mRNA inhibition (1 µM) worked out at 64%. On the same count and under the same terms, with AAAATATGTCCAGGTT (sugars k3 d10 k3, PS) the figure was 74%.

Under “1 µM”, TTGATAAAATAGGGTG (sugars k3 d10 k3, PS) had a target mRNA inhibition of 46%. The same measure, in the same setting: under “GAATGCTACTTGAACA (sugars k3 d1 m1 d8 k3, PS)” stands 48%. CATTCGAATTTCTTCA (sugars k3 d10 k3, PS): the target mRNA inhibition runs as follows: (0.02 µM) 29%; (0.078 µM) 53%; (0.313 µM) 74%; (1 µM) 77%; (1.25 µM) 91%; (5 µM) 97%. For the setting “1 µM”, CATTTAGAATACGCTG (sugars k3 d10 k3, PS) gave a target mRNA inhibition of 25%. Sequence CTATAACTGGAAGGAG (sugars k3 d10 k3, PS) had a target mRNA inhibition (1 µM) of 43%. The same measure, in the same setting: with TTGCATAAGAGCCAAA (sugars k3 d10 k3, PS) the figure was 46%. On the same count and under the same terms, under “ACTAATATTGAGGCAC (sugars kkdddddddddkekek, PS)” stands 27%; under “ATAGAGTTGCACCGTT (sugars k3 d9 k3 e1, PS)”, 71%. Still for that read-out and setting: under “TAGTGCCAAACCAATG (sugars k3 d1 m1 d8 k3, PS)” stands 55%; under GCTGATTAATCTTGAT (sugars k3 d10 k3, PS), 48%.

Take GCAGTAAAGTGCTAAG (sugars k3 d10 k3, PS): the target mRNA inhibition is, setting by setting: (0.02 µM) 44%; (0.078 µM) 37%; (0.313 µM) 62%; (1 µM) 83%; (1.25 µM) 78%; (5 µM) 91%.

On to GAATGTAAAGGCTGGG (sugars k3 d10 k3, PS), for which, for the setting “1 µM”, the target mRNA inhibition worked out at 42%.

The values above are taken from the OligoGym collection.
